Results from publication PMC11110755, “Structure-based virtual screening of unbiased and RNA-focused libraries to identify new ligands for the HCV IRES model system” (RSC Medicinal Chemistry, 2024).
Converted amounts (≈) assume the structure as drawn. “And” between values parts separate entries of the source, which are not always exact repeats. Equal entries are not always repeated. “Also recorded” adds a separate entry of the source. Where two headings read alike, the source gives them in different places.

Columns and labels:
HCV IRES [1] = test system: HCV IRES; set-up: method as in PMID 10866369; conditions: previously reported, Fig. 1; cited from earlier work
HCV IRES [2] = test system: HCV IRES; set-up: method as in PMID 15380215; conditions: previously reported, Fig. 1; read-out: IC50 (Luciferase reporter gene assay); cited from earlier work
HCV IRES subdomain IIa [3] = test system: HCV IRES subdomain IIa; set-up: method as in PMID 20564282; conditions: previously reported, Fig. 1; read-out: EC50 (2-AP assay); cited from earlier work
HCV IRES subdomain IIa [4] = target: HCV IRES subdomain IIa; set-up: method as in PMID 16279767; conditions: previously reported; read-out: KD (MS assay); cited from earlier work
[5] = test system: HCV IRES subdomain IIa in presence of total RNA from yeast; assay: Selectivity FRET assay in presence of competing total RNA from yeast; type: biochemical, hepatitis C virus; conditions: 1:5 m/m HCV IRES : total RNA from yeast
Protocol: For the HCV IRES-binding compounds (4, 5, 8–13, 8a–8c), a selectivity FRET assay in presence of total RNA from yeast (Roche) was performed. The ratio of the FRET HCV IRES subdomain IIa construct and the total RNA was set to 1 : 5 m/m. The preparation of the labelled RNA and the compounds was the same as in the binding assay. The yeast RNA was diluted to 7.88 mg L^−1 and supplemented with 100 nM HCV IRES and appropriate concentrations of the compounds (3.16-fold dilution series) in FRET buffer (Fig. S10 ^†). For each compound, triplicate measurements were performed. For each experiment, one DMSO negative control was carried out. The final DMSO concentration was always 2%.
(§1) FRET experiments were analyzed using GraphPad Prism (version 8.0.1., GraphPad Software, Boston, Massachusetts USA, https://www.graphpad.com).

HCV IRES subdomain IIa [6] = assay: FRET assay monitoring ligand-induced conformational change of Cy3/Cy5-labelled HCV IRES subdomain IIa; type: biochemical, hepatitis C virus; conditions: for EC50: 100 nM Cy3/Cy5-labelled RNA, 10 mM HEPES pH 7.0, 2 mM MgCl2, 2% DMSO, ≥ = lower limit
Protocol: For the FRET assay, a two stranded HCV IRES subdomain IIa carrying a 5′-Cy3-label on one and 5′-Cy5-label on the other strand (Cy3-[…], Cy5-[…], Biomers.net GmbH) was used as described previously.[22,53] All samples containing labelled RNA were treated under light protection. FRET experiments were performed on a Tecan Spark 10 M plate reader (excitation/emission: 480/670 nm) using black half area 96 well microplates (Greiner Bio-One), based on a protocol by Zhou et al.[53] The 5′-Cy3- and 5′-Cy5-labelled single strands were annealed by heating to 75 °C in FRET buffer (10 mM HEPES pH 7.0, 2 mM MgCl2) and cooled down to room temperature for at least 20 min. The 5′-Cy3/Cy5-labelled RNA was diluted to 100 nM in FRET buffer and supplemented with compounds 8–28 in appropriate concentrations. Compounds 4 and 5 were used as positive controls. For the initial screening, compounds were added in final concentrations of 1000, 100, 10 and 0.001 μM (Fig. S4 ^†). If a concentration dependent reduction of the FRET signal (Cy5-emission) was observed, EC50-values were determined using ligand concentrations from 1 mM to 100 nM in 3.16-fold (semi-logarithmic) dilution series. For those compounds, the Cy3 emission was measured at 535 nm to confirm a conformational change dependent reduction in the Cy5 emission signal via Cy3 emission increase (Fig. S7 ^†). For each experiment, one DMSO negative control was carried out. The final DMSO concentration was always 2%. Excitation and emission spectra were recorded for the Cy3/Cy5-labelled RNA (100 nM) in FRET buffer to confirm excitation (Cy3) and emission (Cy5) wavelength as well as for each compound (1 μM) in FRET buffer to exclude any interference with the cyanine dyes. All measurements were performed at least as triplicates for screening and EC50-determination.
as §1

HCV IRES subdomain IIa [7] = test system: HCV IRES subdomain IIa; set-up: method as in PMID 16279767, PMID 24930829, PMID 27775338; conditions: previously reported, Fig. 1; read-out: EC50 (FRET assay); cited from earlier work
cellular replicon = test system: cellular replicon; set-up: method as in PMID 16279767; conditions: cited from earlier work
[8] = test system: Tte preQ1-Riboswitch aptamer domain; assay: MST off-target counter screen, preQ1-riboswitch aptamer domain; type: binding, Thermoanaerobacter tengcongensis; conditions: for preQ1-riboswitch binding / selectivity (MST-shift), in words: 1000, 100, 10 and 0.001 μM
Protocol: (§2) Off-target counter screens by MST were performed as described previously.[31,84] Briefly, the 5′-Cy5-labelled Tte preQ1-Riboswitch aptamer domain (Biomers.net GmbH) was heated to 75 °C for 5 min, cooled down to room temperature for at least 20 min and then diluted to 20 nM in MST buffer (50 mM Tris-HCl pH 7.5, 100 mM KCl, 25 mM MgCl2) and supplemented with compounds 4, 5, 8–13, 18, 21, 22 and 26 to final concentrations of 1000, 100, 10 and 0.001 μM. PreQ1 was used as a positive control. The 5′-Cy5-labelled B. angulatum SAM VI-Riboswitch aptamer domain (Eurofins Genomics GmbH) was heated to 75 °C for 5 min, cooled down to room temperature for at least 20 min and then diluted to 20 nM in MST buffer (50 mM Tris-HCl pH 7.5, 100 mM KCl, 25 mM MgCl2) and supplemented with compounds 5, 9 and 28 to final concentrations of 1000, 100, 10 and 0.001 μM. SAM was used as a positive control. For each experiment, one DMSO negative control was carried out. The final DMSO concentration was 2%. All measurements were performed at least as duplicates for pre-screening and triplicates for KD-determination. MST measurements were analyzed from signals after 18 s laser on-time using the MO.Affinity Analysis software (version 2.3) and exported for statistical analysis and plotting in GraphPad Prism (version 8.0.1., GraphPad Software, Boston, Massachusetts USA, https://www.graphpad.com).

HCV IRES subdomain IIa [9] = type: binding, hepatitis C virus; conditions: 30 nM Cy5-labelled RNA, 10 mM HEPES pH 7.0, 2 mM MgCl2, 2% DMSO, ≥ = no saturation, n.b. no binding observed
Protocol: For the MST assay, the same sequence of the two stranded HCV IRES subdomain IIa as for the FRET assay was used. One strand was 5′-Cy5-labelled and the other strand was unmodified ([…], Cy5-[…], Biomers.net GmbH). All samples containing labelled RNA were treated under light protection. MST experiments were performed on a Monolith NT.115 from NanoTemper Technologies using standard uncoated capillaries. The strands were annealed by heating to 75 °C in MST buffer (10 mM HEPES pH 7.0, 2 mM MgCl2) and cooled down to room temperature for at least 20 min. The 5′-Cy5-labelled HCV IRES domain IIa RNA was diluted to 30 nM in MST buffer and supplemented with compounds 8–25 in appropriate concentrations. Compounds 4 and 5 were used as positive controls. For the initial screening, compounds were added to final concentrations of 1000 (or 316 if limited by solubility), 100, 10 and 0.001 μM (Fig. S5 ^†). If a concentration-dependent shift of thermophoresis was observed, KD-values were determined using concentrations ranging from 1 mM (if permitted by solubility, otherwise starting from 316 or 100 μM) to 0.01 μM in a 3.16-fold (semi-logarithmic) dilution series. For each experiment, one DMSO negative control was carried out. Final DMSO concentration was always 2%.
as §2

[10] = test system: SAM VI-Riboswitch aptamer domain; assay: MST off-target counter screen, SAM VI-riboswitch aptamer domain; type: binding, B. angulatum; conditions: 1000, 100, 10 and 0.001 μM
Protocol: as §2

| SMILES | Kd (HCV IRES subdomain IIa [4]) | FRET result in presence of competing total RNA, in words [5] | EC50 (HCV IRES subdomain IIa [6]) [µM] | EC50 (HCV IRES subdomain IIa [7]) [µM] | preQ1-riboswitch binding / selectivity (MST-shift), in words [8] | SAM-VI-riboswitch binding (MST-shift), in words [10] | also measured |
| --- | --- | --- | --- | --- | --- | --- | --- |
| Cc1cc2nc3ccc(N(C)C)cc3nc2cc1N [Compound 1] | – | – | – | – | – | – | IC50 (Fluci reporter gene assay) (HCV IRES [1]): 0.02 µg/mL (≈ 0.0793 µM) |
| Cc1nc(/N=C(\N)NCCc2ccccc2)nc(C)c1OCCCN(C)C [Compound 2] | – | – | – | – | – | – | IC50 (HCV IRES [2]): 2.1 µM |
| CC(=O)c1ccc(C(=O)N[C@@H](CCCCN)C(=O)N2C[C@H](N)C[C@H](N)C2)cc1 [Compound 3] | – | – | – | – | – | – | EC50 (HCV IRES subdomain IIa [3]): 270 µM |
| CN(C)CCCn1c(N)nc2ccccc21 [Compound 4] | 100 µM and ≥ 100 µM | lower EC50-values | 78 ± 35 | 50 | – | – | – |
| CN(C)CCCn1c(N)nc2ccc3c(c21)CC(CN(C)C)CO3 (stereo not shown) [Compound 5] | 0.86 µM | – | 4.9 ± 2.6 | 3.4 | Weak preQ1-riboswitch binding; also recorded: binding to the preQ1-riboswitch at very high concentrations | no binding; also recorded: no MST shift | antiviral activity in cellular replicon assay, in words (cellular replicon): antiviral activity; toxicity in cellular replicon assay, in words (cellular replicon): minimal toxicity; Kd (HCV IRES subdomain IIa [9]; read-out: MST KD): 5.2 ± 0.8 µM |
| Nc1nc(N2CCN(Cc3c(Cl)ccc(O)c3Cl)CC2)cc(=O)[nH]1 [Compound 9] | – | lower EC50-values; also recorded: reduced | 217 ± 41 | – | Weak preQ1-riboswitch binding; also recorded: binding to the preQ1-riboswitch at very high concentrations | no MST shift; also recorded: no binding; also recorded: no general RNA-promiscuity | FRET-signal change / conformational change of HCV IRES subdomain IIa, in words (HCV IRES subdomain IIa [6]; pre-screening 1000, 100, 10 and 0.001 μM): signals in the FRET assay; Kd ([8]; 20 nM Cy5-labelled aptamer, read-out: KD preQ1 riboswitch (MST)): 7.8 µM; MST KD (HCV IRES subdomain IIa [9]): n.b. |
